Laboratory results: patent publication US12473295B2, “Substituted straight chain spiro derivatives” (Janssen Pharmaceutica NV, priority 2019, dated 2025)
Structures can show the parent of a compound that is named as a salt. Where two headings read alike, the source gives them in different places.

What was measured:
[1] = biological target: menin/MLL (terbium chelate-labeled menin, FITC-MBM1 peptide) (Homo sapiens (Human), UniProt O00255); assay: Menin/MLL homogenous time-resolved fluorescence (HTRF) assay; type: binding;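 further: IC50 from percent inhibition of HTRF signal, normalized between wells without competitor and wells with a saturating competitor that displaces FITC-MBM1 from His-tagged menin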
Chain of menin/MLL (terbium chelate-labeled menin, FITC-MBM1 peptide) (O00255 other isoform, or with tags, fused parts or gaps): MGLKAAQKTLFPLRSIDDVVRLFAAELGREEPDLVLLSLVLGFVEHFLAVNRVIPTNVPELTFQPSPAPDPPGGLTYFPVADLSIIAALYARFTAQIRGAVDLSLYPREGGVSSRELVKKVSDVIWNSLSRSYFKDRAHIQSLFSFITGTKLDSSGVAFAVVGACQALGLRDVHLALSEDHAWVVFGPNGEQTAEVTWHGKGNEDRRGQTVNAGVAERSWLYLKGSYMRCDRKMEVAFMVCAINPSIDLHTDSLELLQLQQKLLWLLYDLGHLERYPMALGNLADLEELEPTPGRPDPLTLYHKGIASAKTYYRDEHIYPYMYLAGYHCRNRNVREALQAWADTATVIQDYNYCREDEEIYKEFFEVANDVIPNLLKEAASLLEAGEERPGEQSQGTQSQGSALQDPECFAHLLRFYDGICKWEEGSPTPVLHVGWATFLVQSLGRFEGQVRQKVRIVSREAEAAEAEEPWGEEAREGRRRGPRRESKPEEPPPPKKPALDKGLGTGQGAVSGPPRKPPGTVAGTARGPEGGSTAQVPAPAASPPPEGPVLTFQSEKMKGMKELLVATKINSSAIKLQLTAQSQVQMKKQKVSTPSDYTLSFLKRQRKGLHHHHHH

MOLM14 cells = assay: Proliferation assay (spheroid growth, 8 days), MOLM14; type: cell-based, human; details: MOLM14, 8 days, read-out: spheroid assay_OneTime MOLM14 IC50;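 further: spheroid size read as confluence by live-cell imaging, compounds added at a range of concentrations with 0.3% DMSO, DMSO-treated wells = 0%, highest reference dose = low control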
OCI-AML3 cells = assay: Proliferation assay (spheroid growth, 8 days), OCI-AML3; type: cell-based, human; details: OCI-AML3, 8 days
How it was run: (§1)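 8-day spheroid growth in ultra-low attachment plates; seeding 200 cells (MOLM14, OCI-AML3) or 300 (KO-52); DMSO 0.3%. Day-8 imaging, confluence vs DMSO (0%) and top reference dose (baseline); IC50 by variable-slope fit.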

KO-52 cells = assay: Proliferation assay (spheroid growth, 8 days), KO-52 control cell line; type: cell-based, human; details: read-out: spheroid assay_OneTime KO-52 IC50
How it was run: as §1

MEIS1 mRNA = MEIS1 mRNA expression assay (Quantigene Singleplex) in MOLM14 cells; type: cell-based, human; details: 48 hours incubation;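 further: MEIS1 transcript levels read by probe hybridization and normalized to RPL28 mRNA, with IC50 fitted to fold changes across a rising compound concentration series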
[2] = HTRF-30 min incubation IC50, 30 min incubation
[3] = read-out: HTRF-30 min incubation IC50, 30 min incubation

| Compound | IC50 [1, 2] [nM] | IC50 (MOLM14 cells; Homo sapiens, MOLM-14, […]) [nM] | IC50 (OCI-AML3 cells; Homo sapiens, OCI-AML-3, […]) [nM] | IC50 (MEIS1 mRNA; Homo sapiens, MOLM-14, 48 h) [nM] | IC50 [1, 3] [nM] | IC50 (MOLM14 cells) [nM] | IC50 (OCI-AML3 cells) [nM] | IC50 (MEIS1 mRNA) [nM] | IC50 (KO-52 cells; Homo sapiens, […]) [nM] | IC50 (KO-52 cells) [nM] |
| --- | --- | --- | --- | --- | --- | --- | --- | --- | --- | --- |
| CCN(C(=O)c1cc(F)ccc1Oc1nncnc1N1CCC2(C1)CN([C@H](CCCN(C)C[C@H](C)C(=O)N(C)C)C(C)C)C2)C(C)C (single isomer, unassigned) [Compound 189, 2-((5-(2-((R)-6-(((*S)-3-(dimethylamino)-2-methyl-3-oxopropyl)(methyl)amino)-2-methylhexan-3-yl)-2,6-diazaspiro[3.4]octan-6-yl)-1,2,4-triazin-6-yl)oxy)-N-ethyl-5-fluoro-N-isopropylbenzamide fumarate] | 0.22 | 30 | 190 | 19 | – | – | – | – | > 15000 | – |
| CCN(CC)C[C@H](O)C[C@H](C(C)C)N1CC2(CCN(c3ncnnc3Oc3ccc(F)cc3C(=O)N(CC)C(C)C)C2)C1 (single isomer, unassigned) [Compound 334, 2-((5-(2-((3*R,5*R)-6-(diethylamino)-5-hydroxy-2-methylhexan-3-yl)-2,6-diazaspiro[3.4]octan-6-yl)-1,2,4-triazin-6-yl)oxy)-N-ethyl-5-fluoro-N-isopropylbenzamide fumarate] | 0.079 | 12 | 130 | 11 | – | – | – | – | > 15000 | – |
| CC(C)[C@@H](CCC(N)=O)N1CC2(CCN(c3ncnnc3Oc3ccc(F)cc3-c3cncnc3C3CC3)C2)C1 (single isomer, unassigned) [Compound 43, (*R)-4-(6-(6-(2-(4-cyclopropylpyrimidin-5-yl)-4-fluorophenoxy)-1,2,4-triazin-5-yl)-2,6-diazaspiro[3.4]octan-2-yl)-5-methylhexanamido] | 0.55 | 290 | 1200 | ~240 | – | – | – | – | > 15000 | – |
| CCN(C(=O)c1cc(F)ccc1Oc1nnccc1N1CCC2(C1)CN([C@H](CCCN(C)C)C(C)C)C2)C(C)C (single isomer, unassigned) [Compound 77, (*R)-2-((4-(2-(6-(dimethylamino)-2-methylhexan-3-yl)-2,6-diazaspiro[3.4]octan-6-yl)pyridazin-3-yl)oxy)-N-ethyl-5-fluoro-N-isopropylbenzamide] | – | – | – | – | 0.51 | 100 | 1320 | 120 | – | 13700 |
| CCN(C(=O)c1cc(F)ccc1Oc1nncnc1N1CCC2(C1)CN([C@H](CCCN(C)CC(CO)OC)C(C)C)C2)C(C)C (stereo partly drawn) [Compound 170, N-ethyl-5-fluoro-2-((5-(2-((3R)-6-((3-hydroxy-2-methoxypropyl)(methyl)amino)-2-methylhexan-3-yl)-2,6-diazaspiro[3.4]octan-6-yl)-1,2,4-triazin-6-yl)oxy)-N-isopropylbenzamide fumarate] | 0.1 | 25 | 41 | 37 | – | – | – | – | > 15000 | – |
| CCN(C(=O)c1cc(F)ccc1Oc1nncnc1N1CCC2(C1)CN([C@H](CCCN(C)[C@H](CO)COC)C(C)C)C2)C(C)C [Compound 165, N-ethyl-5-fluoro-2-(5-(2-((R)-6-((R)-1-hydroxy-3-methoxypropan-2-yl)(methyl)amino)-2-methylhexan-3-yl)-2,6-diazaspiro[3.4]octan-6-yl)-1,2,4-triazin-6-yl)oxy)-N-isopropylbenzamide fumarate] | 0.06 | 30 | 99 | 23 | – | – | – | – | > 15000 | – |
| CCN(C(=O)c1cc(F)ccc1Oc1nncnc1N1CCC2(C1)CN([C@@H](CCCN(C)C(C)C)C(C)C)C2)C(C)C (single isomer, unassigned) [Compound 123, (*S)—N-ethyl-5-fluoro-N-isopropyl-2-((5-(2-(6-(isopropyl(methyl)amino)-2-methylhexan-3-yl)-2,6-diazaspiro[3.4]octan-6-yl)-1,2,4-triazin-6-yl)oxy)benzamide fumarate] | 3.98 | > 940 | 3550 | > 1000 | – | – | – | – | > 15000 | – |
| CCN(C(=O)c1cc(F)ccc1Oc1nncnc1N1CCC2(C1)CN([C@H](CCN(C)CCC(N)=O)C(C)C)C2)C(C)C (single isomer, unassigned) [Compound 280, (*R)-2-((5-(2-(1-((3-amino-3-oxopropyl)(methyl)amino)-4-methylpentan-3-yl)-2,6-diazaspiro[3.4]octan-6-yl)-1,2,4-triazin-6-yl)oxy)-N-ethyl-5-fluoro-N-isopropylbenzamide fumarate] | 0.2 | 690 | 920 | 1070 | – | – | – | – | > 15000 | – |
| CCN(C(=O)c1cc(F)ccc1Oc1nncnc1N1CCC2(C1)CN([C@H](CCCN(C)C[C@H](C)C(=O)NC)C(C)C)C2)C(C)C [Compound 197, N-ethyl-5-fluoro-N-isopropyl-2-((5-(2-((R)-2-methyl-6-(methyl((S)-2-methyl-3-(methylamino)-3-oxopropyl)amino)hexan-3-yl)-2,6-diazaspiro[3.4]octan-6-yl)-1,2,4-triazin-6-yl)oxy)benzamide fumarate] | 0.3 | 45 | 36 | 36 | – | – | – | – | > 15000 | – |

Now from value to compound, other results behind:

| IC50 [1, 2] [nM] | IC50 (MOLM14 cells; Homo sapiens, MOLM-14, […]) [nM] | IC50 (OCI-AML3 cells; Homo sapiens, OCI-AML-3, […]) [nM] | IC50 (MEIS1 mRNA; Homo sapiens, MOLM-14, 48 h) [nM] | IC50 [1, 3] [nM] | IC50 (MOLM14 cells) [nM] | IC50 (OCI-AML3 cells) [nM] | IC50 (MEIS1 mRNA) [nM] | Compound | IC50 (KO-52 cells; Homo sapiens, […]) [nM] | IC50 (KO-52 cells) [nM] |
| --- | --- | --- | --- | --- | --- | --- | --- | --- | --- | --- |
| 0.089 | 26 | 140 | 44 | – | – | – | – | CCCN(C)CCC[C@H](C(C)C)N1CC2(CCN(c3ncnnc3Oc3ccc(F)cc3C(=O)N(CC)C(C)C)C2)C1 (single isomer, unassigned) [Compound 127, (*R)—N-ethyl-5-fluoro-N-isopropyl-2-((2-methyl-6-(methyl(propyl)amino)hexan-3-yl)-2,6-diazaspiro[3.4]octan-6-yl)-1,2,4-triazin-6-yl)oxy)benzamide fumarate] | 11300 | – |
| ~0.36 | 23 | 73 | 50 | – | – | – | – | CCN(C(=O)c1cc(F)ccc1Oc1nncnc1N1CCC2(C1)CN([C@H](CCCNC[C@H](O)COC)C(C)C)C2)C(C)C [Compound 284, N-ethyl-5-fluoro-2-((5-(2-((R)-6-(((S)-2-hydroxy-3-methoxypropyl)amino)-2-methylhexan-3-yl)-2,6-diazaspiro[3.4]octan-6-yl)-1,2,4-triazin-6-yl)oxy)-N-isopropylbenzamide formate] | > 15000 | – |
| 0.065 | 21 | 150 | 34 | – | – | – | – | CCN(C(=O)c1cc(F)ccc1Oc1nncnc1N1CCC2(C1)CN([C@H](CCCN(C)C(C)C)C(C)C)C2)C(C)C (single isomer, unassigned) [Compound 122, (*R)—N-ethyl-5-fluoro-N-isopropyl-2-((5-(2-(6-(isopropyl(methyl)amino)-2-methylhexan-3-yl)-2,6-diazaspiro[3.4]octan-6-yl)-1,2,4-triazin-6-yl)oxy)benzamide fumarate] | > 15000 | – |
| 0.12 | 21 | 83 | 22 | – | – | – | – | CCN(C(=O)c1cc(F)ccc1Oc1nncnc1N1CCC2(C1)CN([C@H](CCCN(C)[C@@H](C)COC)C(C)C)C2)C(C)C [Compound 157, N-ethyl-5-fluoro-N-isopropyl-2-((5-(2-((R)-6-((S)-1-methoxypropan-2-yl)(methyl)amino)-2-methylhexan-3-yl)-2,6-diazaspiro[3.4]octan-6-yl)-1,2,4-triazin-6-yl)oxy)benzamide fumarate] | 13800 | – |
| 0.28 | 270 | 1340 | 490 | – | – | – | – | CCN(C(=O)c1cc(F)ccc1Oc1nncnc1N1CCC2(C1)CN(C(CCN)C(C)C)C2)C(C)C (stereo not shown) [Compound 26, 2-((5-(2-(1-amino-4-methylpentan-3-yl)-2,6-diazaspiro[3.4]octan-6-yl)-1,2,4-triazin-6-yl)oxy)-N-ethyl-5-fluoro-N-isopropylbenzamide] | > 15000 | – |
| ~0.4 | 70 | 58 | 56 | – | – | – | – | CCN(C(=O)c1cc(F)ccc1Oc1nncnc1N1CCC2(C1)CN([C@H](CCCN(C)C[C@@H](C)C(=O)NC)C(C)C)C2)C(C)C [Compound 195, N-ethyl-5-fluoro-N-isopropyl-2-((5-(2-((R)-2-methyl-6-(methyl((R)-2-methyl-3-(methylamino)-3-oxopropyl)amino)hexan-3-yl)-2,6-diazaspiro[3.4]octan-6-yl)-1,2,4-triazin-6-yl)oxy)benzamide fumarate] | > 15000 | – |
| – | – | – | – | 1.01 | 510 | 2880 | ~630 | N-ethyl-2-((5-(2-((3*R,5*R)-6-(ethyl(methyl)amino)-5-methoxy-2-methylhexan-3-yl)-2, diazaspiro[3.4]octan-6-yl)-1,2,4-triazin-6-yl)oxy)-5-fluoro-N-isopropylbenzamide [Compound 311] | – | > 15000 |
| 0.054 | 14 | 46 | 10 | – | – | – | – | CCN(C(=O)c1cc(F)ccc1Oc1nncnc1N1CCC2(C1)CN([C@H](CCCN(C)C[C@@H](O)COC)C(C)C)C2)C(C)C [Compound 283, N-ethyl-5-fluoro-2-((5-(2-((R)-6-(((R)-2-hydroxy-3-methoxypropyl)(methyl)amino)-2-methylhexan-3-yl)-2,6-diazaspiro[3.4]octan-6-yl)-1,2,4-triazin-6-yl)oxy)-N-isopropylbenzamide fumarate] | > 15000 | – |
